Literature values, collected in US5426034A, “Process for the production and use of a stable 6-phosphogluconolactonase” (Boehringer Mannheim GmbH, priority 1990, dated 1995).

Test system: 6-phosphogluconolactonase (phosphogluconolactonase) from Zymomonas mobilis
Settings: Zymomonas enzyme, literature value (Scopes 1985); substrate specificity

- Km: 20 to 30 µM
SMILES: O=C1O[C@H](COP(=O)(O)O)[C@@H](O)[C@H](O)[C@H]1O [6-phosphogluconolactone]
